Measurements taken from patent US6551796B1, “Nucleic acid encoding urate transporter and methods of use thereof” (Mount Sinai School of Medicine, priority 1997, dated 2003).
Each block holds one molecule with its values, some of them ahead of it.

Experiments:
Type in all cases: biochemical
[1] = molecular target: T1, recombinant UAT (urate transporter/channel) (Rattus norvegicus, UniProt P97840, L187H); experiment: Channel activity of recombinant rat UAT reconstituted in planar lipid bilayer (patch clamp recording); conditions: for effect on channel activity, cis (cytoplasmic) side: agent added to cis chamber / cytoplasmic side of UAT; for concentration that completely blocked channel activity: agent in trans chamber (extracellular side of UAT); for reversibility of block of channel activity: replacing the agent-containing solution with agent-free urate solution
T1 construct: 6-histidine metal chelating domain (pRSET A leader) (N); made in house; host or cells: E. coli BL21(DE3)pLysE, vector pRSET A
T1 sequence (P97840 1-322 isoform P97840-2 L155H): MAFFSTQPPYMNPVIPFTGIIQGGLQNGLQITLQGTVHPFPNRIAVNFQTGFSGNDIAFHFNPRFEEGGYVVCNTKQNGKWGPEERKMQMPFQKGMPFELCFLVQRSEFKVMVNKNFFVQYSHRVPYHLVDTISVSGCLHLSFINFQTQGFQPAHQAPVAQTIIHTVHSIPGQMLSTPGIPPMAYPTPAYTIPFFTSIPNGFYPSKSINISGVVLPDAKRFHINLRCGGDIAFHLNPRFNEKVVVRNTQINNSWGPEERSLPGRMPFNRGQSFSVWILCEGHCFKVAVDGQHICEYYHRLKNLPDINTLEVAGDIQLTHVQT
Experimental: (§1) A mixture of bovine phosphatidyl-ethanolamine (PE, 10 mg/ml), and phosphatidylserine (PS, 10 mg/ml) (Avanti Polar Lipids, Birmingham. Ala.) in a ratio of 1:1 (wt/wt) was evaporated to dryness under nitrogen. The resultant phospholipid pellet was suspended in 48 μl of a solution containing 220 mM KCl, CsCl or Cs2SO4 and 10 mM HEPES-NaOH at pH 7.4. Following the addition of 2 μl recombinant UAT protein (50-100 μg/ml), proteoliposomes were formed by sonicating the mixture for 30 sec at 80 kHz in a bath sonicator (Laboratory Supplies, Hicksville, N.Y.) as described by Leal-Pinto et al. (1995) J. Membrane Biol. 146:123. In some experiments, proteoliposomes were prepared with the same lipids but with 10 μl recombinant HIV-1 Tat protein, as described by Zagury et al. (1996) Cellular Pharm.—AIDS Sciences 3:97 at 380 μg/ml and 40 μl of 220 mM Cs2SO4, 10 mM HEPES-NaOH at pH 7.4. Fresh proteoliposomes were prepared for each experiment.
(§2) The lipid bilayer chamber was identical to that described by Leal-Pinto et al. (1995) J. Membrane Biol. 146:123. The two cups of the plexiglass bilayer chamber were each initially filled with 1 ml of a solution whose electrolyte composition was identical to that in which the proteoliposomes were prepared. A 1:1 (wt/wt) mixture of bovine brain PE (10 mg/ml) and PS (10 mg/ml) (Avanti Polar Lipids) was dried with a nitrogen stream, dissolved in decane (Sigma Chemical Co.) to 50 mg lipid/ml and then painted with a club-shaped glass rod onto a 50 um hole in a Teflon film (Type C-20, 12.5 um thick, Dupont Electronics, Wilmington, Del.) that was fitted between the two cups of the chamber. Offset potentials due to all junction potentials were corrected by using the zero adjust system of the patch clamp amplifier (Model PC-501, Warner Instrument Co.). The voltage was subsequently clamped at varying levels (−100 to +100 mV): voltage was generated and controlled by the patch clamp amplifier. If a stable resistance of at least 100 gigohms and a noise of less than 0.2 pA were maintained, the experiments were initiated.
(§3) Experiments were initiated by adding proteoliposomes to the trans chamber (1 μl of UAT or 5-50 μl of HIV-1 Tat proteoliposomes). The solution was stirred until fusion occurred. Fusion usually occurred within 2-3 minutes of the addition of UAT-containing proteoliposomes, evidenced by the presence of channel gating (clear transitions between the closed and open states). Once fusion occurred the stirrers were stopped and the solution in the trans chamber was replaced with 1 ml of an identical solution, without proteoliposomes, to limit further channel incorporation. In all experiments channel activity was initially evaluated in the presence of symmetrical solutions of 2.5 mM urate in either 220 mM KCl, CsCl, or Cs2SO4, 10 mM HEPES-NaOH, and 0.25 mM CaCl2 at pH 7.4. In some experiments channel activity was compared in the absence and presence of 5 mM Ba^+−. To evaluate channel selectivity, experiments were performed in symmetrical solutions of 2.5 mM urate, but with infinite gradients of K^+, Cs^−, Ca^−−, Cl^− and/or SO4^═ established by using the following combination of buffered solutions in the cis and trans chambers, respectively: a) CsCl and KCl, b) Cs2SO4 and CsCl, and c) Cs2SO4 with Ca^−+ and Cs2SO4 without Ca^−+. Selectivity was also evaluated in symmetrical solutions of 220 mM Cs2SO4, 10 mM HEPES-NaOH, and 0.25 mM CaCl2 at pH 7.4 in the presence of a 10:1 urate gradient: the 2.5 mM urate, buffered Cs2SO4 solution in the trans chamber was replaced with a Cs2SO4 solution containing 0.25 mM urate. In a final group of experiments, channel activity was compared in symmetrical solutions of 2.5 mM urate, 220 mM Cs2SO4, 10 mM HEPES-NaOH, and 0.25 mM CaCl2 at pH 7.4 before and after an increasing amount of non-immune IgG (up to 200 μg) or the IgG fraction of antiporcine uricase (up to 15 μg) was sequentially added to each side of the lipid bilayer. […]

[2] = molecular target: T2, hUAT (human urate transporter/channel, galectin 9) (Homo sapiens, UniProt O00182); experiment: Channel activity of recombinant human UAT (galectin 9) reconstituted in lipid bilayer
T2 construct: 6-histidine tag (N); made in house
T2 sequence (O00182 1-323 isoform O00182-2): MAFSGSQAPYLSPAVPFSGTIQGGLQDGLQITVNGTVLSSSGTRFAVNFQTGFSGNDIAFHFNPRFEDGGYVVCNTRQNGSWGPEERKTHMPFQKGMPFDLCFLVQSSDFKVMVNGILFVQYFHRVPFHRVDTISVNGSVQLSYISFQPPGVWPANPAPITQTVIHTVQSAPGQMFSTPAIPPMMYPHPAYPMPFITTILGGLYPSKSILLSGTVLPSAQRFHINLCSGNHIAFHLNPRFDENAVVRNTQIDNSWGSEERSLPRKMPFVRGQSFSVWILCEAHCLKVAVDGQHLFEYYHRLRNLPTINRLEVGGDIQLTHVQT
Experimental: Galactin 9 was reported to be a secreted neutrophil chemoattractant. However, galectin 9 has more than 75% amino acid homology to the rat urate transporter/channel. To test whether galectin 9 is the human plasma membrane-associated urate transporter channel, cDNA was generated by RT-PCR of RNA from WBC of a normal donor and fused with an amino terminal 6-histidine tag in a bacterial expression vector. Recombinant protein (hUAT) was prepared and then purified on a Ni-NTA column. hUTA was sonicated into liposomes, fused with a lipid bilayed, and channel activity was recorded. Channel activity was only detected in the presence of urate. […] This difference in voltage sensitivity is consistent with the absence of a positively charged amino acid in hUAT in a region of the putative voltage sensing loop within rat UAT.
In a continued search for local blocks of homology between rat and human UAT and known proteins, a highly significant block of homology to copper chaperones was detected in the carboxy terminus of both the rat and human UAT. Based on the possibility that this portion of UAT binds copper, like copper chaperones, experiments were conducted to determine whether copper was able to modulate UAT channel activity. Using rat and human recombinant UAT it was observed that copper plays an important role in modulating channel activity.
The rat and human urate transporter/channel amino acid sequence contains two galactose binding sites. In the molecular model of the urate transporter/channel, both of these sites reside in extracellular domains of the protein. One site is located between the putative first and second transmembrane domain, the second is located between the putative third and fourth transmembrane domains. Experiments indicate that the addition of lactose (less than 50 μM) to the side of the bilayer chamber that is believed to face the extracellular domains of the protein alters the biophysical properties of the human urate transporter channel. […] In vivo, this could result in increased urate excretion and ultimately a reduction in plasma urate concentration.

[3] = molecular target: T3, recombinant UAT (urate transporter/channel) (Rattus norvegicus, UniProt P97840); experiment: Channel activity of recombinant rat UAT reconstituted in planar lipid bilayer (patch clamp recording); conditions: 2.5 mM urate cis : 2.5 mM oxonate trans
T3 construct: 6-histidine metal chelating domain (pRSET A leader) (N); made in house; host or cells: E. coli BL21(DE3)pLysE, vector pRSET A
T3 sequence (P97840 1-322 isoform P97840-2 L155H): as the sequence (P97840 1-322 isoform P97840-2 L155H) above
Experimental: as §1, §2, §3

[4] = less than 50 μM on the side facing the extracellular domains
[5] = less than 1 μM copper added to the bathing solution

Structure (SMILES): [Ba+2] [Ba^+−]
- effect on channel activity ([1]; 5 mM, symmetrical 2.5 mM urate and 220 mM KCl): failed to alter channel activity

Structure (SMILES): O=c1[nH]c(=O)c2[nH]cnc2[nH]1 [xanthine]
- effect on channel activity, cis (cytoplasmic) side [1]: blocked channel activity
- concentration that completely blocked channel activity ([1]; mean±SE): 4.6 ± 1.5 µM
- ratio of blocking concentration, extracellular side versus cytoplasmic face ([1]; complete block of channel activity): approximately one-tenth

Structure (SMILES): OC[C@H]1O[C@@H](O[C@H]2[C@H](O)[C@@H](O)C(O)O[C@@H]2CO)[C@H](O)[C@@H](O)[C@H]1O (some centres unmarked) [lactose]
- effect on current [2, 4]: increase in current
- effect on stability of the channel in the lipid bilayer [2, 4]: apparent stabilization of the channel

Structure (SMILES): [Cu] [copper]
- effect on channel activity [1, 5]: significantly increases channel activity
- effect on channel activity [2, 5]: significantly increases channel activity
- open probability of the human channel after addition ([2]; less than 1 μM copper, from 5-15% before addition): 50-60%

The next lines start with the values.

- effect on channel activity from the trans side of the bilayer [2]: blocked channel activity
Structure (SMILES): NC(=O)c1cnccn1 [pyrazinamide]

- effect on channel activity, cis (cytoplasmic) side [1]: without effect
- concentration that completely blocked channel activity ([1]; mean±SE): 24.1 ± 8.9 µM
- reversibility of block of channel activity [1]: reversed
Structure (SMILES): O=C(O)c1cnccn1 [PZA, pyrazinoate]

- effect on channel activity, trans side ([1]; 250 μM on the trans side of the channel, symmetrical urate): not affected
- concentration at which channel activity was 97% blocked ([1]; oxonate in cis (cytoplasmic) chamber, symmetrical 2.5 mM urate, mean±SE, n=3): 108 ± 16 µM
- reversibility of block of channel activity [1]: reversed
- channel activity under bi-ionic conditions [3]: ceased after approximately one hour
Structure (SMILES): O=C(O)c1nc(=O)[nH]c(=O)[nH]1 [oxonate]

- effect on channel activity, cis (cytoplasmic) side [1]: failed to block channel activity
- concentration that completely blocked channel activity ([1]; mean±SE): 4.6 ± 2.6 µM
- effect on channel activity from the trans side of the bilayer [2]: blocked channel activity
Structure (SMILES): Nc1ncnc2c1ncn2[C@@H]1O[C@H](CO)[C@@H](O)[C@H]1O [adenosine]
